Laboratory results as given in patent US12612386B2, “Heteroaryl-triazole compounds as pesticides” (Bayer Aktiengesellschaft, priority 2020, dated 2026).

Columns and labels:
Type in all cases: in vivo
[1] = tested on: larvae of the banded cucumber beetle (Diabrotica balteata); assay: Diabrotica balteata spray test; conditions: 168 h, 100 g/ha (=32 μg/well), after 7 days, read-out: efficacy (seedling growth)
Method: Diabrotica balteata—Spray Test
(§1) • Solvent: 78.0 parts by weight of acetone • 1.5 parts by weight of dimethylformamide • Emulsifier: alkylarylpolyglycol ether
(§2) To produce a suitable preparation of active compound, 1 part by weight of active compound is mixed with the stated amount of solvent, and the concentrate is diluted with water, containing an emulsifier concentration of 1000 ppm, to the desired concentration. Further test concentrations are prepared by dilution with emulsifier containing water.
Soaked wheat seeds (Triticum aestivum) are placed in a multiple well plate filled with agar and some water and are incubated for 1 day to germinate (5 seeds per well). The germinated wheat seeds are sprayed with a test solution containing the desired concentration of the active ingredient. Afterwards each unit is infected with 10-20 larvae of the banded cucumber beetle (Diabrotica balteata).
After 7 days efficacy in % is determined. 100% means all the seedlings have grown up like in the untreated, uninfected control; 0% means none of the seedlings have grown.

[2] = tested on: fall armyworm larvae (Spodoptera frugiperda); assay: whole plant or invertebrate; conditions: 168 h
Method: Spodoptera frugiperda—Spray Test
• Solvent: 78.0 parts by weight acetone • 1.5 parts by weight dimethylformamide • Emulsifier: alkylarylpolyglycol ether
as §2, with “solvents” for “solvent,”, “and” for “and the concentrate”
Maize (Zea mays) leaf sections are sprayed with a preparation of the active ingredient of the desired concentration. Once dry, the leaf sections are infested with fall armyworm larvae (Spodoptera frugiperda).
After 7 days mortality in % is determined. 100% means all caterpillars have been killed and 0% means none of the caterpillars have been killed.
Spodoptera frugiperda—Spray Test (SPODFR)
After the specified period of time, mortality in % is determined. 100% means all caterpillars have been killed and 0% means none of the caterpillars have been killed.

[3] = tested on: larvae of the southern green stink bug (Nezara viridula); assay: whole plant or invertebrate; conditions: 96 h
Method: Nezara viridula—Spray Test
as §1, §2
Barley plants (Hordeum vulgare) are sprayed with a test solution containing the desired concentration of the active ingredient and are infested with larvae of the southern green stink bug (Nezara viridula).
After 4 days mortality in % is determined. 100% means all the stink bugs have been killed; 0% means none of the stink bugs have been killed.

`C[C@H](NC(=O)c1cc(S(=O)(=O)C(F)(F)F)cc(S(=O)(=O)C(F)(F)F)c1)c1nc(C2CC2)nn1-c1cc(C(N)=O)ncn1` [I-107] showed a pest or weed control at 32 µg/disc, 100 g/ha [1] of 100% and a mortality at 100 g/ha [2] of 100%.
In the case of `C[C@H](NC(=O)c1cc(C(F)(F)F)cc(S(C)(=O)=O)c1)c1nc(C2CC2)nn1-c1cc(C(N)=O)ncn1` [I-108], the mortality at 100 g/ha [2] is reported as 100%.
For `C[C@H](NC(=O)c1cc(Cl)cc(S(=O)(=O)C(F)(F)F)c1)c1nc(C2CC2)nn1-c1cc(C(N)=O)ncn1` [I-109], the pest or weed control at 32 µg/disc, 100 g/ha [1] was 100% and the mortality at 100 g/ha [2] was 100%.
Compound `CC(C)N(C)C(=O)c1cc(-n2ncnc2[C@H](C)NC(=O)c2cccc(OC(F)(F)F)c2)ncn1` [I-111] has a mortality at 100 g/ha [2] of 100%.
With `C[C@H](NC(=O)c1cc(Cl)cc(OC(F)(F)C(F)(F)I)c1)c1ncnn1-c1cc(C(N)=O)ncn1` [I-114, 6-(5-{(1S)-1-[3-chloro-5-(1,1,2,2-tetrafluoro-2-iodoethoxy)benzamido]ethyl}-1H-1,2,4-triazol-1-yl)pyrimidine-4-carboxamide] the pest or weed control at 32 µg/disc, 100 g/ha [1] was 100% and the mortality at 100 g/ha [2] was 100%.
`Cc1nc([C@H](C)NC(=O)c2cc(OC(F)(F)F)cc(OC(F)(F)F)c2)n(-c2cc(C(N)=O)ncn2)n1` [I-117] gave a mortality at 500 g/ha [3] of 100%, a pest or weed control at 32 µg/disc, 100 g/ha [1] of 100% and a mortality at 100 g/ha [2] of 100%.
`C[C@H](NC(=O)c1cc(Cl)cc(S(=O)(=O)C(F)F)c1)c1ncnn1-c1cc(C#N)ncn1` [I-119] gave a mortality at 500 g/ha [3] of 100%, a pest or weed control at 32 µg/disc, 100 g/ha [1] of 100% and a mortality at 100 g/ha [2] of 100%.
`CC(C)N(C)C(=O)c1cc(-n2ncnc2[C@H](C)NC(=O)c2cc(Br)cc(OC(F)(F)C(F)F)c2)ncn1` [I-123] showed a mortality at 100 g/ha [2] of 100%.
`Cc1nc([C@H](C)NC(=O)c2cc(Br)cc(C#N)c2)n(-c2cc(C(N)=O)ncn2)n1` [I-127] was tested, and the mortality at 100 g/ha [3] was 90%, the mortality at 500 g/ha [3] was 100% and the pest or weed control at 32 µg/disc, 100 g/ha [1] was 100%. For the same compound, the mortality at 100 g/ha [2] was 100%.
For `Cc1nc([C@H](C)NC(=O)c2cc(Cl)cc(C#N)c2)n(-c2cc(C(N)=O)ncn2)n1` [I-131], the mortality at 500 g/ha [3] was 100% and the pest or weed control at 32 µg/disc, 100 g/ha [1] was 100%.
`C[C@H](NC(=O)c1ccnc(OC(F)(F)F)c1)c1ncnn1-c1cc(C(N)=O)ncn1` [I-132] was tested, and the mortality at 500 g/ha [3] was 100%, the pest or weed control at 32 µg/disc, 100 g/ha [1] was 100% and the mortality at 100 g/ha [2] was 100%.
With `CSc1cc(OC(F)F)cc(C(=O)N[C@@H](C)c2nc(C3CC3)nn2-c2cc(C(N)=O)ncn2)c1` [I-137] the mortality at 100 g/ha [2] was 100%.
`C[C@H](NC(=O)c1cc(Br)cc(S(=O)(=O)C(F)(F)F)c1)c1ncnn1-c1cc(C(N)=O)ncn1` [I-138] showed a mortality at 500 g/ha [3] of 100%, a pest or weed control at 32 µg/disc, 100 g/ha [1] of 80% and a mortality at 100 g/ha [2] of 100%.
In the case of `C[C@H](NC(=O)c1cc(OC(F)(F)F)cc(S(=O)(=O)C(F)F)c1)c1nc(C2CC2)nn1-c1cc(C(N)=O)ncn1` [I-144], the mortality at 100 g/ha [2] is reported as 100%.
Work on `C[C@H](NC(=O)c1cc(Br)cc(Br)c1)c1nc(C2CC2)nn1-c1cc(C(N)=O)ncn1` [I-145] yielded a pest or weed control at 32 µg/disc, 100 g/ha [1] of 100% and a mortality at 100 g/ha [2] of 100%.
`C[C@H](NC(=O)c1cc(OC(F)(F)F)cc(C2CC2)c1)c1nc(C2CC2)nn1-c1cc(C(N)=O)ncn1` [I-146] showed a pest or weed control at 32 µg/disc, 100 g/ha [1] of 100% and a mortality at 100 g/ha [2] of 100%.
In the case of `C[C@H](NC(=O)c1cc(C(F)F)cc(C(F)F)c1)c1nc(C2CC2)nn1-c1cc(C(N)=O)ncn1` [I-147], the mortality at 500 g/ha [3] is reported as 100% and the mortality at 100 g/ha [2] is reported as 100%.
In the case of `C[C@H](NC(=O)c1cc(Cl)cc(S(=O)(=O)C(F)F)c1)c1nc(C2CC2)nn1-c1cc(C(N)=O)ncn1` [I-151], the mortality at 100 g/ha [2] is reported as 83%.
With `C[C@H](NC(=O)c1cc(OC(F)F)cc(C2CC2)c1)c1nc(C2CC2)nn1-c1cc(C(N)=O)ncn1` [I-153] the pest or weed control at 32 µg/disc, 100 g/ha [1] was 100% and the mortality at 100 g/ha [2] was 100%.
In the case of `CNC(=O)c1cc(-n2nc(C3CC3)nc2[C@H](C)NC(=O)c2cc(OC(F)(F)F)cc(S(C)(=O)=O)c2)ncn1` [I-155], the mortality at 500 g/ha [3] is reported as 100% and the mortality at 100 g/ha [2] is reported as 100%.
Work on `C[C@H](NC(=O)c1cc(OC(F)(F)F)cc(S(=O)(=O)C(F)(F)F)c1)c1nc(C2CC2)nn1-c1cc(C(=O)N(C)C)ncn1` [I-157] yielded a pest or weed control at 32 µg/disc, 100 g/ha [1] of 100% and a mortality at 100 g/ha [2] of 100%.
For `C[C@H](NC(=O)c1cc(Br)cc(Br)c1)c1nc(C2CC2)nn1-c1cc(C(=O)N(C)C)ncn1` [I-158], the pest or weed control at 32 µg/disc, 100 g/ha [1] was 100% and the mortality at 100 g/ha [2] was 100%.
Compound `C[C@H](NC(=O)c1cc(OC(F)(F)F)cc(OC(F)(F)F)c1)c1nc(C2CC2)nn1-c1cc(C(=O)N(C)C)ncn1` [I-165] has a pest or weed control at 32 µg/disc, 100 g/ha [1] of 100% and a mortality at 100 g/ha [2] of 100%.
